# Assay results as given in US7713994B2 (Wyeth LLC, priority 2005, dated 2010).
# Target: T1, cyclin D1/cdk 4 enzyme (Homo sapiens, UniProt P11802)
# T1 construct: made in house; host or cells: Sf9 insect cells, recombinant baculovirus
# Assay: CDK4 ELISA kinase assay (phospho-Rb ser 795 detection)
# Assay type: biochemical
# Conditions: In Vitro Enzyme Assay, cyclin D1/cdk 4, read-out: CDK4 IC50
# Method in brief: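 ELISA format: plate-bound GST-Rb, 200 μM ATP, Sf9 cyclin/CDK enzyme, 1 h at 30° C; then anti-pRb Ser795 primary overnight at 4° C, HRP secondary, TMB. IC50 after no-substrate background subtraction.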
# T1 sequence (P11802 whole entry, species assumed): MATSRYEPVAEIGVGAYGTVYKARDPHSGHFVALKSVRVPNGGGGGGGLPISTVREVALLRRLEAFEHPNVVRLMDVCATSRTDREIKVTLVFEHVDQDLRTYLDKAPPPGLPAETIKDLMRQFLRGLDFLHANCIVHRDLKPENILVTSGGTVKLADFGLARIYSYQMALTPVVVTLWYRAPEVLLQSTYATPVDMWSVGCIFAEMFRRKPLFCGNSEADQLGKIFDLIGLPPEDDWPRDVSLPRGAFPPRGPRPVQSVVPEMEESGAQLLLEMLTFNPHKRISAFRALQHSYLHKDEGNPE
# T1 sequence (P24385 whole entry partner, species assumed): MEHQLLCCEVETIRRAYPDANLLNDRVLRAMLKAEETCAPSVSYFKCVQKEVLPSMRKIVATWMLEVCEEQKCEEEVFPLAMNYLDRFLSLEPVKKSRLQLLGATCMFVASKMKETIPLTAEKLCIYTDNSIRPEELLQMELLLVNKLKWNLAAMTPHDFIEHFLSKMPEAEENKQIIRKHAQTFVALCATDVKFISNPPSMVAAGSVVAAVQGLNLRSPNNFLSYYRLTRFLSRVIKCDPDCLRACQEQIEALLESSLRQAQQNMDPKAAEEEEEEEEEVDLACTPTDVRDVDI
row,SMILES,IC50 [µM]
1,"COc1ccc(CNC=C2C(=O)NC(=O)c3ccc(C=Cn4ccnc4)cc32)cc1O [Example 733, 4-[(3-Hydroxy-4-methoxy-benzylamino)-methylene]-6-(2-imidazol-1-yl-vinyl)-4H-isoquinoline-1,3-dione]",0.01
2,"NS(=O)(=O)c1ccc(CNC=C2C(=O)NC(=O)c3ccc(-c4ccc(C(=O)O)cc4)cc32)cc1 [Example 741, 4-{1,3-Dioxo-4-[(4-sulfamoyl-benzylamino)-methylene]-1,2,3,4-tetrahydro-isoquinolin-6-yl}-benzoic acid]",2.3
3,"NS(=O)(=O)c1ccc(CNC=C2C(=O)NC(=O)c3ccc(-c4cccc(C(=O)O)c4)cc32)cc1 [Example 742, 3-{1,3-Dioxo-4-[(4-sulfamoyl-benzylamino)-methylene]-1,2,3,4-tetrahydro-isoquinolin-6-yl}-benzoic acid]",13.8
4,"NS(=O)(=O)c1ccc(CNC=C2C(=O)NC(=O)c3ccc(-c4ccc(C(F)(F)F)cc4)cc32)cc1 [Example 743, 4-({[1,3-Dioxo-6-(4-trifluoromethyl-phenyl)-2,3-dihydro-1H-isoquinolin-4-ylidenemethyl]-amino}-methyl)-benzenesulfonamide]",11.3
5,"NS(=O)(=O)c1ccc(CNC=C2C(=O)NC(=O)c3ccc(-c4cccc(C(F)(F)F)c4)cc32)cc1 [Example 744, 4-({[1,3-Dioxo-6-(3-trifluoromethyl-phenyl)-2,3-dihydro-1H-isoquinolin-4-ylidenemethyl]-amino}-methyl)-benzenesulfonamide]",48.6
6,"NS(=O)(=O)c1ccc(CNC=C2C(=O)NC(=O)c3ccc(-c4ccccc4C(F)(F)F)cc32)cc1 [Example 745, 4-({[1,3-Dioxo-6-(2-trifluoromethyl-phenyl)-2,3-dihydro-1H-isoquinolin-4-ylidenemethyl]-amino}-methyl)-benzenesulfonamide]",19.9
7,"CC(=O)c1ccc(-c2ccc3c(c2)C(=CNCc2ccc(S(N)(=O)=O)cc2)C(=O)NC3=O)cc1 [Example 746, 4-({[6-(4-Acetyl-phenyl)-1,3-dioxo-2,3-dihydro-1H-isoquinolin-4-ylidenemethyl]-amino}-methyl)-benzenesulfonamide]",0.5
8,"CC(=O)c1cccc(-c2ccc3c(c2)C(=CNCc2ccc(S(N)(=O)=O)cc2)C(=O)NC3=O)c1 [Example 747, 4-({[6-(3-Acetyl-phenyl)-1,3-dioxo-2,3-dihydro-1H-isoquinolin-4-ylidenemethyl]-amino}-methyl)-benzenesulfonamide]",14.5
9,"CC(=O)c1ccccc1-c1ccc2c(c1)C(=CNCc1ccc(S(N)(=O)=O)cc1)C(=O)NC2=O [Example 748, 4-({[6-(2-Acetyl-phenyl)-1,3-dioxo-2,3-dihydro-1H-isoquinolin-4-ylidenemethyl]-amino}-methyl)-benzenesulfonamide]",46.2
10,"Cc1ccccc1-c1ccc2c(c1)C(=CNCc1ccc(S(N)(=O)=O)cc1)C(=O)NC2=O [Example 754, 4-{[(1,3-Dioxo-6-o-tolyl-2,3-dihydro-1H-isoquinolin-4-ylidenemethyl)-amino]-methyl}-benzenesulfonamide]",11
11,"NS(=O)(=O)c1ccc(CNC=C2C(=O)NC(=O)c3ccc(-c4ccc(-c5ccccc5)cc4)cc32)cc1 [Example 757, 4-{[(6-Biphenyl-4-yl-1,3-dioxo-2,3-dihydro-1H-isoquinolin-4-ylidenemethyl)-amino]-methyl}-benzenesulfonamide]",31.1
12,"NS(=O)(=O)c1ccc(CNC=C2C(=O)NC(=O)c3ccc(-c4cccc(-c5ccccc5)c4)cc32)cc1 [Example 758, 4-{[(6-Biphenyl-3-yl-1,3-dioxo-2,3-dihydro-1H-isoquinolin-4-ylidenemethyl)-amino]-methyl}-benzenesulfonamide]",25.7
13,"NS(=O)(=O)c1ccc(CNC=C2C(=O)NC(=O)c3ccc(-c4ccc(C=CC(=O)O)cc4)cc32)cc1 [Example 759, 3-(4-{1,3-Dioxo-4-[(4-sulfamoyl-benzylamino)-methylene]-1,2,3,4-tetrahydro-isoquinolin-6-yl}-phenyl)-acrylic acid]",1.7
14,"NS(=O)(=O)c1ccc(CNC=C2C(=O)NC(=O)c3ccc(-c4cccc(C=CC(=O)O)c4)cc32)cc1 [Example 760, 3-(3-{1,3-Dioxo-4-[(4-sulfamoyl-benzylamino)-methylene]-1,2,3,4-tetrahydro-isoquinolin-6-yl}-phenyl)-acrylic acid]",2.2
15,"CC(C)c1ccc(-c2ccc3c(c2)C(=CNCc2ccc(S(N)(=O)=O)cc2)C(=O)NC3=O)cc1 [Example 761, 4-({[6-(4-Isopropyl-phenyl)-1,3-dioxo-2,3-dihydro-1H-isoquinolin-4-ylidenemethyl]-amino}-methyl)-benzenesulfonamide]",18.4
16,"CC(C)c1cccc(-c2ccc3c(c2)C(=CNCc2ccc(S(N)(=O)=O)cc2)C(=O)NC3=O)c1 [Example 762, 4-({[6-(3-Isopropyl-phenyl)-1,3-dioxo-2,3-dihydro-1H-isoquinolin-4-ylidenemethyl]-amino}-methyl)-benzenesulfonamide]",33.6
17,"CSc1ccc(-c2ccc3c(c2)C(=CNCc2ccc(S(N)(=O)=O)cc2)C(=O)NC3=O)cc1 [Example 763, 4-({[6-(4-Methylsulfanyl-phenyl)-1,3-dioxo-2,3-dihydro-1H-isoquinolin-4-ylidenemethyl]-amino}-methyl)-benzenesulfonamide]",49.6
18,"O=C1NC(=O)c2ccc(-c3ccccc3C(F)(F)F)cc2C1=CNCc1ccc(O)c(O)c1 [Example 774, 4-[(3,4-Dihydroxy-benzylamino)-methylene]-6-(2-trifluoromethyl-phenyl)-4H-isoquinoline-1,3-dione]",1.4

# The next lines start with the values.
row,IC50 [µM],SMILES
1,3.78,"CC(=O)c1ccccc1-c1ccc2c(c1)C(=CNCc1ccc(O)c(O)c1)C(=O)NC2=O [Example 777, 6-(2-Acetyl-phenyl)-4-[(3,4-dihydroxy-benzylamino)-methylene]-4H-isoquinoline-1,3-dione]"
2,1.23,"Cc1ccccc1-c1ccc2c(c1)C(=CNCc1ccc(O)c(O)c1)C(=O)NC2=O [Example 783, 4-[(3,4-Dihydroxy-benzylamino)-methylene]-6-o-tolyl-4H-isoquinoline-1,3-dione]"
3,9.74,"O=C1NC(=O)c2ccc(-c3ccc(-c4ccccc4)cc3)cc2C1=CNCc1ccc(O)c(O)c1 [Example 786, 6-Biphenyl-4-yl-4-[(3,4-dihydroxy-benzylamino)-methylene]-4H-isoquinoline-1,3-dione]"
4,2.27,"O=C1NC(=O)c2ccc(-c3cccc(-c4ccccc4)c3)cc2C1=CNCc1ccc(O)c(O)c1 [Example 787, 6-Biphenyl-3-yl-4-[(3,4-dihydroxy-benzylamino)-methylene]-4H-isoquinoline-1,3-dione]"
5,1.45,"CC(C)c1ccc(-c2ccc3c(c2)C(=CNCc2ccc(O)c(O)c2)C(=O)NC3=O)cc1 [Example 790, 4-[(3,4-Dihydroxy-benzylamino)-methylene]-6-(4-isopropyl-phenyl)-4H-isoquinoline-1,3-dione]"
6,4.99,"CC(C)c1cccc(-c2ccc3c(c2)C(=CNCc2ccc(O)c(O)c2)C(=O)NC3=O)c1 [Example 791, 4-[(3,4-Dihydroxy-benzylamino)-methylene]-6-(3-isopropyl-phenyl)-4H-isoquinoline-1,3-dione]"
7,1.96,"CSc1ccccc1-c1ccc2c(c1)C(=CNCc1ccc(O)c(O)c1)C(=O)NC2=O [Example 793, 4-[(3,4-Dihydroxy-benzylamino)-methylene]-6-(2-methylsulfanyl-phenyl)-4H-isoquinoline-1,3-dione]"
8,41.7,"CCN(CC)CCOC=Cc1ccc2c(c1)C(=CNc1ccc(N3CCN(C)CC3)cc1)C(=O)NC2=O [Example 794, 6-[2-(2-Diethylamino-ethoxy)-vinyl]-4-{[4-(4-methyl-piperazin-1-yl)-phenylamino]-methylene}-4H-isoquinoline-1,3-dione]"
9,24.2,"CN1CCN(c2ccc(NC=C3C(=O)NC(=O)c4ccc(C=CCCC(=O)O)cc43)cc2)CC1 [Example 795, 5-(4-{[4-(4-Methyl-piperazin-1-yl)-phenylamino]-methylene}-1,3-dioxo-1,2,3,4-tetrahydro-isoquinolin-6-yl)-pent-4-enoic acid]"
10,2.27,"CN1CCN(c2ccc(NC=C3C(=O)NC(=O)c4ccc(C=CCCO)cc43)cc2)CC1 [Example 796, 6-(4-Hydroxy-but-1-enyl)-4-{[4-(4-methyl-piperazin-1-yl)-phenylamino]-methylene}-4H-isoquinoline-1,3-dione]"
11,2.5,"CN1CCN(c2ccc(NC=C3C(=O)NC(=O)c4ccc(C=CCCCCO)cc43)cc2)CC1 [Example 798, 6-(6-Hydroxy-hex-1-enyl)-4-{[4-(4-methyl-piperazin-1-yl)-phenylamino]-methylene}-4H-isoquinoline-1,3-dione]"
12,6.37,"CN1CCN(c2ccc(NC=C3C(=O)NC(=O)c4ccc(C=CCOCCO)cc43)cc2)CC1 [Example 799, 6-[3-(2-Hydroxy-ethoxy)-propenyl]-4-{[4-(4-methyl-piperazin-1-yl)-phenylamino]-methylene}-4H-isoquinoline-1,3-dione]"
13,5.04,"CN1CCN(c2ccc(NC=C3C(=O)NC(=O)c4ccc(C=CCN5CC(=O)NC5=O)cc43)cc2)CC1 [Example 800, 6-[3-(2,4-Dioxo-imidazolidin-1-yl)-propenyl]-4-{[4-(4-methyl-piperazin-1-yl)-phenylamino]-methylene}-4H-isoquinoline-1,3-dione]"
14,15.5,"CN1CCN(c2ccc(NC=C3C(=O)NC(=O)c4ccc(C=CCc5ccccc5O)cc43)cc2)CC1 [Example 801, 6-[3-(2-Hydroxy-phenyl)-propenyl]-4-{[4-(4-methyl-piperazin-1-yl)-phenylamino]-methylene}-4H-isoquinoline-1,3-dione]"
